SMILES strings stand for the structures.

Holding throughout (type): functional
The subject of assay [1] is K562. The experiment in a line: Cytotoxicity against human K562 cells assessed as cell viability at 10 nM in presence of 10 ng/ml cisplatin incubated for 72 hrs by WST1 dye based assay relative to control. A general note: Formazan colour is commonly taken as a measure of viable cells.
A further assay concerns HL-60. The experiment in a line: Cytotoxicity against human HL60 cells assessed as cell viability at 10 nM in presence of 100 ng/ml cisplatin incubated for 72 hrs by WST1 dye based assay relative to control.
The test system of assay [2] is K562. Put plainly: Cytotoxicity against human K562 cells assessed as cell viability at 0.1 nM in presence of 100 ng/ml cisplatin incubated for 72 hrs by WST1 dye based assay relative to control.
Assay [3] concerns K562. The experiment in a line: Cytotoxicity against human K562 cells assessed as cell viability at 100 nM in presence of 100 nM taxol incubated for 72 hrs by WST1 dye based assay relative to control. The conditions noted are these: K562, 72 h, read-out: Activity.

On to `CC[C@H](N)C(=O)N[C@@H]1C(=O)N2[C@@H](CC[C@@H]1CO)CC[C@H]2C(=O)NC(c1ccccc1)c1ccccc1.O=C(O)C(F)(F)F`, for which the values for the Activity in the assay with K562 [1] and in the assay on HL-60 were 48% and 43%, respectively.
For the molecule `CC[C@H](N)C(=O)N[C@@H]1C(=O)N2[C@@H](CC[C@@H]1Cn1cc(CO[C@H](C)[C@H](NC(=O)[C@H](C)NC)C(=O)N3CCC[C@H]3Cn3nnnc3Sc3ccccc3)nn1)CC[C@H]2C(=O)NC(c1ccccc1)c1ccccc1.O=C(O)C(F)(F)F`, the Activity in the assay on K562 [2] is recorded as 30%. The viability at 0.1 µM with K562 [3] was found to be 27%.

Values taken from ChEMBL document CHEMBL4419171, “SMAC mimetic compounds as apoptosis inducers” (2013).
